According to patent US20040072201A1, “Methods of identifying compounds that inhibit nonstop degradation of mRNA” (priority 2002, published 2004):
Each block holds one molecule with its values, some of them ahead of it.

Experiments:
[1] = test system: WT-PGK1 and Ter-poly(A)-PGK1 transcripts; experiment: half-lives of WT-PGK1 and Ter-poly(A)-PGK1 transcripts in yeast treated with paromomycin; format: cell-based, Saccharomyces cerevisiae; settings: 100 μg/ml CHX added during the last hour before half-life determination
Protocol: FIG. 2 depicts graphs of the half-lives of WT-PGK1 and Ter-poly(A)-PGK1 transcripts in wild-type-(WT) and SK17-deleted (ski7A) yeast strains treated with the indicated dose of paromomycin (mg/ml) (PM) for 20 hours. For cycloheximide (CHX) experiments, yeast were treated identically except 100 μg/ml of CHX was added during the last hour before half-life determination.
Any event that diminishes translational fidelity and promotes readthrough of termination codons could plausibly result in the generation of substrates for nonstop decay. In view of recent attempts to treat genetic disorders resulting from PTCs with long-term and high-dose aminoglycoside regimens, this may achieve medical significance. As a proof-of-concept experiment, we examined the performance of transcripts with one [Ter-poly(A)-PGK1] or multiple (WT-PGK1) in-frame termination codons (including those in the 3′ UTR) in yeast strains after treatment with paromomycin, which induces ribosomal readthrough.
27. All PGK1 minigene constructs were under the control of the GAL1 upstream activation sequence (UAS). […] Half-lives were determined by plotting the percent of mRNA remaining versus time on a semi-log plot. All half-lives were determined at 25° C. except for the ccr4Δ (performed at 30° C.) and dcp1-2 [performed after shift to the nonpermissive temp (37° C.) for 1 hour] experiments.

nonstop-PGK1 transcripts = experiment: nonstop-PGK1 mRNA stability (half-life by Northern blot) in yeast; format: cell-based, Saccharomyces cerevisiae; settings: treatment with translation inhibitor
Source text: In order to determine whether the presence of translational termination influences mRNA stability, we assayed PGK1 tran-scripts in Saccharomyces cerevisiae derived from the following constructs (3): wild-type PGK1 (WT-PGK1), a nonsense form of PGK1 harboring a PTC at codon 22 [PTC(22)-PGK1], and nonstop-PGK1 that was created by removing the bona fide termination codon and all in-frame termination codons in the 3′ UTR (untranslated region) from the WT-PGK1 transcript. Nonstop-PGK1 transcripts were as labile as their nonsense-containing counterparts. At least three trans-acting factors (Upf1p, Upf2p, and Upf3p) are essential for nonsense-mediated mRNA decay (NMD) in S. cerevisiae (4, 5). Remarkably, nonstop transcripts were not stabilized in strains lacking Upf1p, distinguishing the pathway of decay from NMD.
Additional experiments were performed to assess the role of translation in nonstop decay. […] It has been shown that translation into the 3′ UTR of selected transcripts can displace bound trans-factors that are positive determinants of message stability (13, 14). […]
27. […] Half-lives were determined by plotting the percent of mRNA remaining versus time on a semi-log plot. All half-lives were determined at 25° C. except for the ccr4Δ (performed at 30° C.) and dcp1-2 [performed after shift to the nonpermissive temp (37° C.) for 1 hour] experiments.

[2] = test system: cultured chicken hepatocellular carcinoma cells; experiment: ratio of truncated to full-length GHR transcripts after translational arrest; format: cell-based; settings: after treatment with translational inhibitor
[3] = test system: termination codon (UGA) in renilla luciferase ORF; experiment: readthrough assay using a dual luciferase reporter construct; format: cell-based
Source text: FIG. 3 depicts the results of a readthrough assay using a dual luciferase reporter construct.
This example describes a readthrough assay that uses a dual lucifierase reporter construct. The firefly luciferase ORF is wild-type while translation of the renilla luciferase ORF is prevented by the presence of a termination codon (UGA). Cells were either untreated or treated with siRNAs directed against RRP4, an essential component of the exosome.

Molecule: C[C@@H]1C[C@@H]([C@H](O)CC2CC(=O)NC(=O)C2)C(=O)[C@@H](C)C1 [cycloheximide]
effect on paromomycin-induced decrease in stability of Ter-poly(A)-PGK1 and WT-PGK1 transcripts [1]: could be reversed
stability of nonstop-PGK1 transcripts (nonstop-PGK1 transcripts): substantially increased the stability

Molecule: CC[C@H]1CN2CCc3cc(OC)c(OC)cc3[C@@H]2C[C@@H]1C[C@H]1NCCc2cc(OC)c(OC)cc21 [emetine]
ratio of truncated-to-full-length GHR transcripts [2]: dramatically increased

readthrough, renilla:firefly ratio ([3]; exosome function inhibited by siRNAs directed against RRP4, increasing concentrations): dose-dependent increase in readthrough
Molecule: gentamycin
readthrough, renilla:firefly ratio ([3]; intact exosome function (control RNAi), increasing concentrations): do not result in a significant increase in readthrough
